Experimental data as given in PubChem BioAssay AID256 (DTP/NCI, 2004).
Values joined by “and” are separate entries in the source; they are usually repeats but may differ in a detail not shown here. Equal entries are not always repeated. Toxic doses and inconclusive results are not listed.

Tested on: CD2F1 mice, L1210 leukemia ip, survival T/C
Experiment: NCI In Vivo Anticancer Drug Screen. Data for tumor model L1210 Leukemia (intraperitoneal) in CD2F1 (CDF1) mice
Conditions: higher = longer survival
Method in brief: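 Tumor-bearing mice (transplanted tumor) were split into treated and vehicle control groups, and the measured endpoint of each treated group was divided by that of its vehicle controls.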

[1] = endpoint: mean survival time, dose: 50.0 mg/kg/injection, schedule: Q01DX009 (ip), vehicle: saline with Tween-80
[2] = endpoint: mean survival time, dose: 100.0 mg/kg/injection, schedule: Q01DX009 (ip), vehicle: saline with Tween-80
[3] = endpoint: mean survival time, dose: 200.0 mg/kg/injection, schedule: Q01DX009 (ip), vehicle: saline with Tween-80
[4] = endpoint: mean survival time, dose: 200.0 mg/kg/injection, schedule: Q04DX002 (ip), vehicle: saline with Tween-80
[5] = endpoint: mean survival time, dose: 25.0 mg/kg/injection, schedule: Q01DX009 (ip), vehicle: saline with Tween-80
[6] = endpoint: mean survival time, dose: 400.0 mg/kg/injection, schedule: Q01DX009 (ip), vehicle: saline with Tween-80
[7] = endpoint: mean survival time, dose: 100.0 mg/kg/injection, schedule: Q01DX001 (ip), vehicle: saline with Tween-80
[8] = endpoint: mean survival time, dose: 200.0 mg/kg/injection, schedule: Q01DX001 (ip), vehicle: saline with Tween-80
[9] = endpoint: mean survival time, dose: 400.0 mg/kg/injection, schedule: Q01DX001 (ip), vehicle: saline with Tween-80
[10] = endpoint: mean survival time, dose: 100.0 mg/kg/injection, schedule: Q04DX002 (ip), vehicle: saline with Tween-80
[11] = endpoint: mean survival time, dose: 100.0 mg/kg/injection, schedule: Q04DX003 (ip), vehicle: saline with Tween-80
[12] = endpoint: mean survival time, dose: 200.0 mg/kg/injection, schedule: Q04DX003 (ip), vehicle: saline with Tween-80
[13] = endpoint: mean survival time, dose: 400.0 mg/kg/injection, schedule: Q04DX002 (ip), vehicle: saline with Tween-80
[14] = endpoint: mean survival time, dose: 400.0 mg/kg/injection, schedule: Q04DX003 (ip), vehicle: saline with Tween-80

CC(C)=CC(=O)OC1C2C(C)=CC(=O)C(O)C2(C)C2C3(O)OCC24C(CC(=O)OC14)C(C)C3O (stereo not given)
T/C (endpoint: mean survival time, dose: 0.25 mg/kg/injection, schedule: Q01DX009 (ip), vehicle: distilled water + Tween-80): 110 % of control | T/C (endpoint: mean survival time, dose: 0.5 mg/kg/injection, schedule: Q01DX009 (ip), vehicle: distilled water + Tween-80): 124 % of control | T/C (endpoint: mean survival time, dose: 1.0 mg/kg/injection, schedule: Q01DX009 (ip), vehicle: distilled water + Tween-80): 112 % of control | T/C (endpoint: mean survival time, dose: 2.0 mg/kg/injection, schedule: Q01DX009 (ip), vehicle: saline with Tween-80): 151 % of control | T/C (endpoint: median survival time, dose: 0.25 mg/kg/injection, schedule: Q01DX009 (ip), vehicle: distilled water + Tween-80 + alcohol): 122 % of control | T/C (endpoint: median survival time, dose: 0.5 mg/kg/injection, schedule: Q01DX009 (ip), vehicle: distilled water + Tween-80 + alcohol): 124 % of control | T/C (endpoint: median survival time, dose: 2.0 mg/kg/injection, schedule: Q01DX009 (ip), vehicle: distilled water + Tween-80 + alcohol): 153 % of control

COc1cccc2c1C(=O)c1c(O)c3c(c(O)c1C2=O)C[C@@](O)(C(=O)CN1CCOCC1)C[C@@H]3OC1CC(N)C(O)C(C)O1 (stereo not given in full)
T/C (endpoint: mean survival time, dose: 6.25 mg/kg/injection, schedule: Q04DX003 (ip), vehicle: water): 90 % of control | T/C (endpoint: mean survival time, dose: 12.5 mg/kg/injection, schedule: Q04DX003 (ip), vehicle: water): 91 % of control | T/C (endpoint: mean survival time, dose: 25.0 mg/kg/injection, schedule: Q04DX003 (ip), vehicle: water): 105 % of control | T/C (endpoint: mean survival time, dose: 50.0 mg/kg/injection, schedule: Q04DX003 (ip), vehicle: water): 91 % of control

Cn1ccoc1=NC1CCCCC1
T/C [1]: 94 % of control | T/C [2]: 94 % of control | T/C [3]: 91 % of control

O=C(Cn1[nH]c(=O)ccc1=O)c1ccccc1
T/C (endpoint: mean survival time, dose: 12.5 mg/kg/injection, schedule: Q04DX002 (ip), vehicle: saline with Tween-80): 95 % of control | T/C (endpoint: mean survival time, dose: 25.0 mg/kg/injection, schedule: Q04DX002 (ip), vehicle: saline with Tween-80): 100 % of control | T/C (endpoint: mean survival time, dose: 50.0 mg/kg/injection, schedule: Q04DX002 (ip), vehicle: saline with Tween-80): 91 % of control and 92 % of control | T/C [4]: 94 % of control

O=CCCNP(=O)(OCc1ccccc1)N(CCCl)CCCl (stereo not given)
T/C (endpoint: mean survival time, dose: 13.13 mg/kg/injection, schedule: Q01DX001 (ip), vehicle: DMSO): 103 % of control | T/C (endpoint: mean survival time, dose: 26.25 mg/kg/injection, schedule: Q01DX001 (ip), vehicle: DMSO): 98 % of control | T/C (endpoint: mean survival time, dose: 52.5 mg/kg/injection, schedule: Q01DX001 (ip), vehicle: DMSO): 103 % of control | T/C (endpoint: mean survival time, dose: 105.0 mg/kg/injection, schedule: Q01DX001 (ip), vehicle: DMSO): 104 % of control | T/C (endpoint: mean survival time, dose: 210.0 mg/kg/injection, schedule: Q01DX001 (ip), vehicle: DMSO): 101 % of control | T/C (endpoint: mean survival time, dose: 420.0 mg/kg/injection, schedule: Q01DX001 (ip), vehicle: DMSO): 101 % of control | T/C (endpoint: mean survival time, dose: 840.0 mg/kg/injection, schedule: Q01DX001 (ip), vehicle: DMSO): 101 % of control

Nc1ccc(Br)cc1-c1nc(N)c2cc(Br)ccc2n1
T/C (endpoint: mean survival time, dose: 50.0 mg/kg/injection, schedule: Q01DX009 (ip), vehicle: Klucel (hydroxypropylcellulose) (HPC)): 104 % of control | T/C (endpoint: mean survival time, dose: 100.0 mg/kg/injection, schedule: Q01DX001 (ip), vehicle: Klucel (hydroxypropylcellulose) (HPC)): 93 % of control | T/C (endpoint: mean survival time, dose: 100.0 mg/kg/injection, schedule: Q01DX009 (ip), vehicle: Klucel (hydroxypropylcellulose) (HPC)): 89 % of control | T/C (endpoint: mean survival time, dose: 200.0 mg/kg/injection, schedule: Q01DX001 (ip), vehicle: Klucel (hydroxypropylcellulose) (HPC)): 103 % of control | T/C (endpoint: mean survival time, dose: 200.0 mg/kg/injection, schedule: Q01DX009 (ip), vehicle: Klucel (hydroxypropylcellulose) (HPC)): 100 % of control | T/C (endpoint: mean survival time, dose: 400.0 mg/kg/injection, schedule: Q01DX001 (ip), vehicle: Klucel (hydroxypropylcellulose) (HPC)): 100 % of control

Cc1nc(N)[nH]c(=O)c1NC(=O)c1ccc(N=[N+]=[N-])cc1
T/C (endpoint: mean survival time, dose: 12.5 mg/kg/injection, schedule: Q01DX001 (ip), vehicle: saline with Tween-80): 90 % of control | T/C (endpoint: mean survival time, dose: 12.5 mg/kg/injection, schedule: Q01DX009 (ip), vehicle: saline with Tween-80): 89 % of control | T/C (endpoint: mean survival time, dose: 12.5 mg/kg/injection, schedule: Q04DX003 (ip), vehicle: saline with Tween-80): 97 % of control | T/C (endpoint: mean survival time, dose: 25.0 mg/kg/injection, schedule: Q01DX001 (ip), vehicle: saline with Tween-80): 95 % of control | T/C [5]: 94 % of control | T/C (endpoint: mean survival time, dose: 25.0 mg/kg/injection, schedule: Q04DX003 (ip), vehicle: saline with Tween-80): 97 % of control | T/C (endpoint: mean survival time, dose: 50.0 mg/kg/injection, schedule: Q01DX001 (ip), vehicle: saline with Tween-80): 94 % of control | T/C [1]: 91 % of control | T/C (endpoint: mean survival time, dose: 50.0 mg/kg/injection, schedule: Q04DX003 (ip), vehicle: saline with Tween-80): 96 % of control

CN(C)c1ccc(N=C(C#N)C(=O)c2ccccc2)cc1
T/C [2]: 95 % of control | T/C [3]: 97 % of control | T/C [6]: 97 % of control

C/C(=N\NC(=S)N1CC2CCC(CC2)C1)c1nccs1
T/C (endpoint: median survival time, dose: 3.13 mg/kg/injection, schedule: Q01DX009 (ip), vehicle: saline with Tween-80): 103 % of control | T/C (endpoint: median survival time, dose: 6.25 mg/kg/injection, schedule: Q01DX009 (ip), vehicle: saline with Tween-80): 112 % of control | T/C (endpoint: median survival time, dose: 12.5 mg/kg/injection, schedule: Q01DX009 (ip), vehicle: saline with Tween-80): 113 % of control and 114 % of control and 110 % of control | T/C (endpoint: median survival time, dose: 25.0 mg/kg/injection, schedule: Q01DX009 (ip), vehicle: saline with Tween-80): 115 % of control and 104 % of control | T/C (endpoint: median survival time, dose: 50.0 mg/kg/injection, schedule: Q01DX009 (ip), vehicle: saline with Tween-80): 120 % of control and 95 % of control and 98 % of control

CCCCCCCCCC/C=C/C1=C(N=[N+]=N)C(=O)c2ccccc2C1=O
T/C (endpoint: mean survival time, dose: 100.0 mg/kg/injection, schedule: Q01DX001 (ip), vehicle: other): 92 % of control | T/C (endpoint: mean survival time, dose: 200.0 mg/kg/injection, schedule: Q01DX001 (ip), vehicle: other): 92 % of control | T/C (endpoint: mean survival time, dose: 400.0 mg/kg/injection, schedule: Q01DX001 (ip), vehicle: other): 94 % of control

CC(=O)N(N)c1ccccc1
T/C [7]: 105 % of control | T/C [8]: 109 % of control | T/C [9]: 105 % of control

O=C1CC(=O)NC(=O)N1
T/C [2]: 102 % of control | T/C [3]: 97 % of control | T/C [6]: 96 % of control

CCOC(=O)c1ccc(OC(=O)Nc2cc(C)ccc2C)cc1
T/C [1]: 100 % of control | T/C [7]: 103 % of control | T/C [10]: 98 % of control and 101 % of control | T/C [11]: 97 % of control | T/C [8]: 100 % of control | T/C [4]: 113 % of control and 109 % of control | T/C [12]: 92 % of control | T/C [9]: 102 % of control | T/C [13]: 114 % of control and 102 % of control | T/C [14]: 94 % of control

O=C(O)CCCCc1ccccc1
T/C [2]: 93 % of control | T/C [11]: 106 % of control | T/C [3]: 98 % of control | T/C [12]: 92 % of control | T/C [6]: 102 % of control | T/C [14]: 106 % of control

CC1OC1c1ccc(-c2ccc(C3OC3C)cc2)cc1 (stereo not given)
T/C (endpoint: mean survival time, dose: 150.0 mg/kg/injection, schedule: Q01DX Z (ip), vehicle: saline): 101 % of control

CC(=O)[C@@]12O[C@@H]1C[C@H]1[C@@H]3CCC4=CC(=O)CC[C@]4(C)[C@H]3CC[C@@]12C
T/C [10]: 96 % of control | T/C [4]: 101 % of control | T/C [13]: 96 % of control

CCCCCCCCCNP(=O)(OCc1ccccc1)N(CCCl)CCCl (stereo not given)
T/C (endpoint: mean survival time, dose: 25.0 mg/kg/injection, schedule: Q01DX001 (ip), vehicle: DMSO): 94 % of control | T/C (endpoint: mean survival time, dose: 50.0 mg/kg/injection, schedule: Q01DX001 (ip), vehicle: DMSO): 94 % of control | T/C (endpoint: mean survival time, dose: 100.0 mg/kg/injection, schedule: Q01DX001 (ip), vehicle: DMSO): 95 % of control | T/C (endpoint: mean survival time, dose: 200.0 mg/kg/injection, schedule: Q01DX001 (ip), vehicle: DMSO): 94 % of control | T/C (endpoint: mean survival time, dose: 400.0 mg/kg/injection, schedule: Q01DX001 (ip), vehicle: DMSO): 91 % of control

COC(=O)c1cocc1C(=O)OC
T/C [10]: 95 % of control | T/C [4]: 91 % of control | T/C [13]: 95 % of control

CCCCCCCCCCCCNCCC#N
T/C [5]: 100 % of control | T/C [1]: 101 % of control | T/C [2]: 95 % of control | T/C [11]: 93 % of control | T/C [12]: 87 % of control

COc1nc(NC2OC(CO)C(O)C(O)C2O)cc(=O)[nH]1 (stereo not given)
T/C (endpoint: median survival time, dose: 12.5 mg/kg/injection, schedule: Q01DX005 (ip), vehicle: saline): 105 % of control | T/C (endpoint: median survival time, dose: 25.0 mg/kg/injection, schedule: Q01DX005 (ip), vehicle: saline): 97 % of control | T/C (endpoint: median survival time, dose: 50.0 mg/kg/injection, schedule: Q01DX005 (ip), vehicle: saline): 100 % of control | T/C (endpoint: median survival time, dose: 100.0 mg/kg/injection, schedule: Q01DX005 (ip), vehicle: saline): 100 % of control | T/C (endpoint: median survival time, dose: 200.0 mg/kg/injection, schedule: Q01DX005 (ip), vehicle: saline): 102 % of control
